Where only a bound is given, the exact number is not on record here.

For the test, the target named is cereblon (CRBN) (Homo sapiens, UniProt Q96SW2). Briefly: In vitro CRBN binding assay (AlphaScreen, competitive inhibition of the PROTAC assay). To be noted: Table 1; AlphaScreen, PROTAC Optimization Kit for BET Bromodomain-Cereblon Binding; read-out: Alpha IC50.
`O=C1CCC(c2cccc(NC(=O)Nc3ccccc3)c2)C(=O)N1` (stereo not drawn) [AEV40129]: the concentration for half-maximal inhibition (IC50) is 370 nM. The result for `Nc1cccc(N2CCOc3cc(C4CCC(=O)NC4=O)ccc3C2=O)c1` (stereo not drawn) [AEV40206] reads 3690 nM; that for `O=C1CCC(c2cccc(NC(=O)Nc3ccc(C(F)(F)F)cc3)c2)C(=O)N1` (stereo not drawn) [AEV40133], 1260 nM; that for `Cc1ccc([N+](=O)[O-])cc1S(=O)(=O)Nc1cccc(C2CCC(=O)NC2=O)c1` (stereo not drawn) [AEV40060], 1520 nM. `O=C1CCC(c2cccc(NC(=O)c3cccc4[nH]ccc34)c2)C(=O)N1` (stereo not drawn) [AEV40191]: the half-maximal inhibitory concentration (IC50) stood at 480 nM. Turning to `O=C1CCC(c2cccc(NS(=O)(=O)c3ccccc3F)c2)C(=O)N1` (stereo not drawn) [AEV40045], the half-maximal inhibitory concentration (IC50) was 300 nM. The result for `Nc1cccc(C2CCC(=O)NC2=O)c1` (stereo not drawn) [AEV40029] reads 2960 nM; that for `O=C1CCC(c2ccc3c(c2)C(=O)NCC3)C(=O)N1` (stereo not drawn) [AEV40078], 3110 nM; that for `CCCCCCOc1ccc(NC(=O)CCc2cccc(Nc3cccc(C4CCC(=O)NC4=O)c3)c2)cc1` (stereo not drawn) [AEV40199], 3470 nM. On to `O=C1CCC(c2cccc(Nc3cccc(NC(=O)c4ccc(Cl)cc4Cl)c3)c2)C(=O)N1` (stereo not drawn) [AEV40220], for which the IC50 was found to be 2110 nM.

In the case of `CC1(C(=O)Nc2cccc(N3CCOc4cc(C5CCC(=O)NC5=O)ccc4C3=O)c2)CC1` (stereo not drawn) [AEV40212], the IC50 turned out to be 2300 nM.

As to `O=C1CCC(c2cccc(NCc3ccc(-c4ccccc4)cc3)c2)C(=O)N1` (stereo not drawn) [AEV40122], the IC50 is 2470 nM. To `CC1CCC(C(=O)Nc2cccc(S(=O)(=O)Nc3cccc(C4CCC(=O)NC4=O)c3)c2)CC1` (stereo not drawn) [AEV40224] belongs 2130 nM; to `O=C1CCC(c2cccc(NS(=O)(=O)c3ccccc3)c2)C(=O)N1` (stereo not drawn) [AEV40025], 1860 nM; to `CCCOc1ccc(C(=O)Nc2cccc(S(=O)(=O)Nc3cccc(C4CCC(=O)NC4=O)c3)c2)cc1` (stereo not drawn) [AEV40193], 860 nM.

In the case of `CC(C)(C)OC(=O)NCc1cccc(C2CCC(=O)NC2=O)c1` (stereo not drawn) [AEV40130], the 50% inhibitory concentration (IC50) was 4330 nM. With `O=C1CCC(c2cccc(NC(=O)c3ccc(Cl)cc3)c2)C(=O)N1` (stereo not drawn) [AEV40139], the concentration for half-maximal inhibition (IC50) is 2120 nM. For `O=C1CCC(c2ccc3c(c2)NC(=O)C3)C(=O)N1` (stereo not drawn) [AEV40062], the concentration for half-maximal inhibition (IC50) is 2390 nM. To `O=C1CCC(c2ccc3oc(N4CCOCC4)nc3c2)C(=O)N1` (stereo not drawn) [AEV40207] belongs 4570 nM; to `Cc1ccc(C2CCC(=O)NC2=O)cc1` (stereo not drawn) [AEV40039], 870 nM; to `O=C1CCC(c2ccc3c(c2)CNC3=O)C(=O)N1` (stereo not drawn) [AEV40040], 1390 nM. To `O=C1CCC(c2cccc(Nc3cccc(CCC(=O)NC4CC5(C4)CC(C(=O)O)C5)c3)c2)C(=O)N1` (stereo not drawn) [AEV40211] belongs above 100000 nM; to `O=C1CCC(c2cccc(NC(=O)c3cc(Br)ccc3Cl)c2)C(=O)N1` (stereo not drawn) [AEV40223], 1380 nM; to `O=C1CCC(c2cccc(NS(=O)(=O)c3cccc(NC(=O)c4ccccc4C(F)(F)F)c3)c2)C(=O)N1` (stereo not drawn) [AEV40152], 720 nM. On to `O=C1CCC(c2cccc(NC(=O)c3ccc(Cl)cc3Cl)c2)C(=O)N1` (stereo not drawn) [AEV40076], for which the IC50 was 1350 nM. Take `C[C@H](O)C(=O)Nc1cccc(C2CCC(=O)NC2=O)c1` (stereo partly drawn) [AEV40031]: the IC50 was 3860 nM.

As to `CC(=O)Nc1ccc(F)c(C2CCC(=O)NC2=O)c1` (stereo not drawn) [AEV40034], the IC50 was found to be 6260 nM. The result for `O=C1CCC(c2cccc(NC(=O)c3ccc(Cl)c(Cl)c3)c2)C(=O)N1` (stereo not drawn) [AEV40137] reads 2220 nM; that for `Nc1cccc(S(=O)(=O)Nc2cccc(C3CCC(=O)NC3=O)c2)c1` (stereo not drawn) [AEV40073], 590 nM; that for `O=C1CCC(c2cccc(NS(=O)(=O)c3cccc(NC(=O)c4ccccc4)c3)c2)C(=O)N1` (stereo not drawn) [AEV40143], 610 nM. On to `CC1CCC(C(=O)Nc2cccc(N3CCOc4cc(C5CCC(=O)NC5=O)ccc4C3=O)c2)CC1` (stereo not drawn) [AEV40213], for which the half-inhibitory concentration (IC50) came out at 2110 nM.

As for `CN1Cc2cc(C3CCC(=O)NC3=O)ccc2C1=O` (stereo not drawn) [AEV40050], the IC50 was 2680 nM. Regarding `O=C1CCC(c2cccc(NC(=O)Nc3ccc(Cl)cc3)c2)C(=O)N1` (stereo not drawn) [AEV40131], the IC50 was 190 nM.

What is called IC50 is the concentration that inhibits the measured activity by half.

(Values after EP4692061A1, “LOW-MOLECULAR-WEIGHT COMPOUND HAVING CEREBLON-BINDING ACTIVITY, AND USE THEREOF” (Aevis Bio, Inc., priority 2023, dated 2024).)
